EC50, melting point and CC50 data for 14 molecules are collected here from patent US20110184029A1, “PYRIDONE DERIVATIVES AS NON-NUCLEOSIDE REVERSE TRANSCRIPTASE INHIBITORS” (KOREA RESEARCH INSTITUTE OF CHEMICAL TECHNOLOGY, priority 2008, published 2011).

The structures appear in SMILES notation. Bounds are passed on as bounds.

Series [1] relates to HIV-IIIb. Description: Antiviral assay in MT-2 / MT-4 cells infected with HIV-IIIb (CellTiter-Glo readout). The series is classed as cell-based. The following applies: MT4, 120 h, 5 days, MT-2 or MT-4 cells not given. On the procedure:
For the antiviral assay utilizing MT-2 cells, 50 μl of 2× test concentration of 5-fold serially diluted compound in culture medium with 10% FBS was added to each well of a 96-well plate (9 concentrations) in triplicate. MT-2 cells were infected with HIV-IIIb at a multiplicity of infection (m.o.i) of 0.01 for 3 hours. Fifty microliters of infected cell suspension in culture medium with 10% FBS (˜1.5×10^4 cells) was then added to each well containing 50 μl of diluted compound. The plates were then incubated at 37° C. for 5 days. For the antiviral assay utilizing MT-4 cells, 20 μl of 2× test concentration of 5-fold serially diluted compound in culture medium with 10% FBS was added to each well of a 384-well plate (7 concentrations) in triplicate. MT-4 cells were next mixed with HIV-IIIb at an m.o.i. of 0.1 and 20 μl of virus/cell mixture (˜2000 cells) was immediately added to each well containing 20 μl of diluted compound. The plates were then incubated at 37° C. for 5 days. After 5 days of incubation, 100 μl of CellTiter-Glo™ Reagent (catalog #G7571, Promega Biosciences, Inc., Madison, Wis.) was added to each well containing MT-2 cells and 40 μl to each well containing MT-4 cells. Cell lysis was carried out by incubation at room temperature for 10 min and chemiluminescence was read.

A short description of series [2]: Cytotoxicity assessment in uninfected MT-2 / MT-4 cells. The series is classed as cell-based. Conditions: human, MT-2 or MT-4 cells not given. How it is done: For compound cytotoxicity assessment in MT-2 cells, the protocol was identical to that of the antiviral assay in MT-2 cells, except that uninfected cells and a 3-fold serial dilution of compounds were used. For cytotoxicity assessment in MT-4 cells, the protocol is identical to that of the antiviral assay in MT-4 cells, except that no virus was added. Cytotoxicity is expressed as CC50.

In turn, `Cc1cc(C#N)cc(C(=O)c2c(CC3CC3)c(C)[nH]c(=O)c2C(C)C)c1` [Example 1, 3-(5-Cyclopropylmethyl-3-isopropyl-6-methyl-2-oxo-1,2-dihydro-pyridine-4-carbonyl)-5-methyl-benzonitrile] had a melting point of 222 to 224 °C. The molecule also registered an EC50 in series [1] below 100 nM.

Molecule `Cc1[nH]c(=O)c(C(C)C)c(C(=O)c2cc(C#N)cc(C#N)c2)c1CC1CC1` [Example 2, 5-(5-Cyclopropylmethyl-3-isopropyl-6-methyl-2-oxo-1,2-dihydro-pyridine-4-carbonyl)-isophthalonitrile] returned a melting point of 266 to 267 °C. This molecule came in with an EC50 in series [1] below 100 nM.

`Cc1[nH]c(=O)c(C(C)C)c(C(=O)c2cc(Cl)cc(C#N)c2)c1CC1CC1` [Example 3, 3-Chloro-5-(5-cyclopropylmethyl-3-isopropyl-6-methyl-2-oxo-1,2-dihydro-pyridine-4-carbonyl)-benzonitrile] yielded a melting point of 237 to 238 °C. The EC50 in series [1] was below 100 nM.

Molecule `Cc1cc(C#N)cc(C(=O)c2c(CC3(CO)CC3)c(C)[nH]c(=O)c2C(C)C)c1` [Example 5, 3-[5-(1-Hydroxymethyl-cyclopropylmethyl)-3-isopropyl-6-methyl-2-oxo-1,2-dihydro-pyridine-4-carbonyl]-5-methyl-benzonitrile] came in with a half-maximal effective concentration (EC50) in series [1] below 100 nM.

`Cc1[nH]c(=O)c(C(C)C)c([S+]([O-])c2cc(C#N)cc(C#N)c2)c1CC1CC1` (stereo not shown) [Example 6, 5-(5-Cyclopropylmethyl-3-isopropyl-6-methyl-2-oxo-1,2-dihydro-pyridin-4-sulfinyl)-isophthalonitrile] had a CC50 at 5 days in series [2] above 100000 nM. In series [1], this molecule registered an EC50 below 100 nM.

For `Cc1cc(C#N)cc(Sc2c(CC3CC3)c(C)[nH]c(=O)c2C(C)C)c1` [Example 7, 3-(5-(cyclopropylmethyl)-3-isopropyl-6-methyl-2-oxo-1,2-dihydropyridin-4-ylthio)-5-methylbenzonitrile], in series [1], the EC50 was below 100 nM.

On to `Cc1cc(C#N)cc([S+]([O-])c2c(CC3CC3)c(C)[nH]c(=O)c2C(C)C)c1` (stereo not shown) [Example 8, 3-(5-(cyclopropylmethyl)-3-isopropyl-6-methyl-2-oxo-1,2-dihydropyridin-4-ylsulfinyl)-5-methylbenzonitrile], for which the concentration for a half-maximal effect (EC50) in series [1] was below 100 nM.

As for `Cc1cc(C#N)cc(S(=O)(=O)c2c(CC3CC3)c(C)[nH]c(=O)c2C(C)C)c1` [Example 9, 3-(5-Cyclopropylmethyl-3-isopropyl-6-methyl-2-oxo-1,2-dihydro-pyridine-4-sulfonyl)-5-methyl-benzonitrile], the CC50 at 5 days in series [2] is above 69000 nM. Also, the EC50 in series [1] was below 100 nM.

For `Cc1[nH]c(=O)c(C(C)C)c(C(=O)c2cc(C#N)cc(C(N)=O)c2)c1CC1CC1` [Example 10, 3-Cyano-5-(5-cyclopropylmethyl-3-isopropyl-6-methyl-2-oxo-1,2-dihydro-pyridine-4-carbonyl)-benzamide], the EC50 in series [1] is below 100 nM.

In turn, `Cc1cc(C#CCO)cc(C(=O)c2c(CC3CC3)c(C)[nH]c(=O)c2C(C)C)c1` [Example 11, 5-(cyclopropylmethyl)-4-(3-(3-hydroxyprop-1-ynyl)-5-methylbenzoyl)-3-isopropyl-6-methylpyridin-2 (1H)-one] came in with an EC50 in series [1] below 100 nM.

On to `Cc1[nH]c(=O)c(C(C)C)c(C(=O)c2cc(C#N)cc(C#CCO)c2)c1CC1CC1` [Example 12, 3-(5-Cyclopropylmethyl-3-isopropyl-6-methyl-2-oxo-1,2-dihydro-pyridine-4-carbonyl)-5-(3-hydroxy-prop-1-ynyl)-benzonitrile], for which the EC50 in series [1] was below 100 nM.

The molecule `Cc1cc(C#N)cc(C(=O)c2c(CC3CC3)c(CO)[nH]c(=O)c2C(C)C)c1` [Example 13, 3-(5-Cyclopropylmethyl-6-hydroxymethyl-3-isopropyl-2-oxo-1,2-dihydro-pyridine-4-carbonyl)-5-methyl-benzonitrile] gave an EC50 in series [1] below 100 nM.

The molecule `CC(C)c1c(C(=O)c2cc(C#N)cc(C#N)c2)c(CC2CC2)c(CO)[nH]c1=O` [Example 14, 5-(5-Cyclopropylmethyl-6-hydroxymethyl-3-isopropyl-2-oxo-1,2-dihydro-pyridine-4-carbonyl)-isophthalonitrile] came in with an EC50 in series [1] below 100 nM.

The molecule `Cc1cc(C#N)cc(C(=O)c2c(CC3CC3)c(CC#N)[nH]c(=O)c2C(C)C)c1` [Example 15, 3-(6-Cyanomethyl-5-cyclopropylmethyl-3-isopropyl-2-oxo-1,2-dihydro-pyridine-4-carbonyl)-5-methyl-benzonitrile] yielded an EC50 in series [1] below 100 nM.
